# Results reported in PMC10744333, “New Perspective for Using Antimicrobial and Cell-Penetrating Peptides to Increase Efficacy of Antineoplastic 5-FU in Cancer Cells” (Journal of Functional Biomaterials, 2023).
# Where two headings read alike, the source gives them in different places. Where a SMILES comes first, the peptide text is derived from it.
# What was measured:
# [1] = tested on: UM-UC-5 urothelial bladder cancer cell lines; assay: tissue or blood; assay type: cell-based; conditions: 48 h
# Description: (§1) A549 adenocarcinomic human alveolar basal epithelial cells, UM-UC-5 urothelial bladder cancer cell lines, and MRC-5 human normal lung fibroblast cells (all from ATCC, American Type Culture Collection, Manassas, VA, USA) were cultured in Dulbecco’s Modified Eagle Medium (DMEM) medium (Gibco®, Grand Island, NY, USA), supplemented with 10% fetal bovine serum (FBS, Gibco®, Grand Island, NY, USA) and 1% (v/v) penicillin/streptomycin (Sigma-Aldrich®, Steinheim, Germany), maintained at 37 °C and 95% humidified air in a 5% CO2 environment. Cells were cultured in monolayers in T25 cm^2 flasks (ThermoScientific®, Waltham, MA, USA) and cell media were replaced every 2–3 days. At 80% confluency, cells were subcultured. For the subculture process, 0.25% trypsin-ethylenediaminetetraacetic acid (EDTA, Sigma-Aldrich®, Steinheim, Germany), was added.
# (§2) The potential of the antineoplastic drug 5-FU, five cationic antimicrobial peptides (CAMPs), and two cell-penetrating peptides (CPPs) was analyzed in UM-UC-5 and A549 cell lines. Cells were treated with drugs in concentrations ranging from 0.1 to 100 μM (for 5-FU) and 0.1 to 50 μM (for CAMPs and CPPs) for 48 h, and cell survival was evaluated using the MTT assay. […] IC50 values > 100 μM were not considered.
# (§3) The cell viability was measured using the MTT (Thiazolyl blue tetrazolium bromide; cat. no. M5655; Sigma-Aldrich; Merck KGaA, Darmstadt, Germany) assay in 96-well plates. For the protocol, 5 × 10^3 cells in 200 µL of medium were grown per well for 24 h at 37 °C. Then, cells were treated with CAMPs and CPPs in the following concentrations: 0.1, 1.0, 5.0, 10, 25, and 50 µM. […] The controls were treated with 0.1% H2O and 0.1% DMSO (vehicles). After incubation for 48 h at 37 °C, cell media were aspirated and 100 µL of MTT solution (0.5 mg/mL in PBS) was added to each well. After incubation for 3 h at 37 °C protected from light, MTT solution was removed from each well and 100 µL of DMSO was added to each well to solubilize the formazan crystals. Absorbance was measured on a Tecan Infinite M200 plate reader (Tecan Group Ltd., Männedorf, Switzerland) at 570 nm. The cell viability was calculated relative to the absorbance of carrier controls. Average values were obtained by performing three independent cell viability assays (n = 3).
# [2] = tested on: A549 adenocarcinomic human alveolar basal epithelial cells; assay type: cell-based; conditions: 48 h
# Description: as §1, §2, §3
# [3] = UM-UC-5 cells, MTT, n = 3, read-out: IC50
# [4] = A549 cells, MTT, n = 3, read-out: IC50
Compound,"IC50 [1, 3] [µM]","IC50 [2, 4] [µM]",IC50 [1] [µM],IC50 [2] [µM]
CC[C@H](C)[C@H](NC(=O)[C@@H](NC(=O)[C@@H](NC(=O)[C@H](CCCNC(=N)N)NC(=O)[C@H](CCCNC(=N)N)NC(=O)[C@H](CCC(N)=O)NC(=O)[C@H](CCCNC(=N)N)NC(=O)/C=C/c1ccccc1)C(C)C)C(C)C)C(=O)N[C@@H](Cc1c[nH]c2ccccc12)C(=O)N[C@@H](Cc1c[nH]c2ccccc12)C(N)=O [CPP2] (HELM PEPTIDE1{[O=C(/C=C/c1ccccc1)[*:2]].R.Q.R.R.V.V.I.W.W.[am]}$$$$V2.0),5.47,> 100,–,–
H-RQRRVVIWW-NH2 [CAMP7],> 100,> 100,–,–
"O=c1[nH]cc(F)c(=O)[nH]1 [Peptide 5-FU, 5-fluorouracil, reference compound]",4.21,–,–,–
H-WRKFWKYLK-NH2 [CAMP2],21.6,5.77,–,–
H-RIRRWKFRW-NH2 [CAMP5],> 100,19.7,–,–
H-RLWWWWRRR-NH2 [CAMP3],–,–,> 100,17.6
H-WKWLKKWIK-NH2 [CAMP1],> 100,12.4,–,–
Ac-CLLIILRRRIRKQAHAHSK-NH2 [CPP4],–,–,> 100,> 100
